Results as given in a melting point compilation (Tetko et al.).

SMILES | melting point [°C]
Cc1[nH]c2c(Cl)cccc2c1C=O | 229 to 231
CC(Sc1ccccn1)C(=O)O (centres undefined) | 70 to 72
Nc1nc(N)nc(C2CCCC2)n1 | 202 to 204
Cc1ccnc(Cl)c1O | 97 to 99
COC(=O)c1c(C)n(C2CC2)c2ccc(O)cc12 | 193 to 195
CC(=O)c1ccc(S(=O)(=O)CC(F)F)cc1 | 97 to 99
CN(CC(=O)O)S(=O)(=O)c1cccnc1 | 175 to 177
Cc1[nH]ncc1Cl | 64 to 66
CS(=O)(=O)NCC#N | 69 to 71
O=C(O)c1cc(Br)ccc1I | 120 to 122
O=C1CC2(CCCCC2)CN1 | 89 to 91
CC(O)c1cn(CC(=O)O)nn1 (centres undefined) | 134 to 136
CCOC(=O)/C(C#N)=C/Nc1ccc(OCC)cc1 | 115 to 117
CCc1ccc(N)c(C(=O)OC)c1 | 83 to 85
O=C(O)C1CCCN(C(=O)Cc2ccccc2)C1 (centres undefined) | 112 to 114
O=C(O)C1CCCN(C(=O)N2CCc3sccc3C2)C1 (centres undefined) | 66 to 68
Cc1cccc([N+](=O)[O-])c1I | 67 to 69
O=C(CCl)NC1CCCC1 | 73 to 75
CS(=O)(=O)Nc1cccc(O)c1 | 93 to 95
CCCCOc1ccc(C(C)=O)cc1OC | 47 to 49
OCc1cnc(-c2ccccc2)s1 | 72 to 74
COc1ccccc1-n1nnnc1S | 153 to 155
Cc1cc(C(=O)O)c2c(C)nn(-c3ccccc3)c2n1 | 195 to 197
CC(C)(C)OC(=O)N1CCOCC1C(=O)O (centres undefined) | 162 to 164
Cc1cc(=O)[nH]c(-c2ncccn2)n1 | 172 to 174
O=S(=O)(Cl)c1ccc(C2CCCCC2)cc1 | 49 to 51

SMILES | melting point [°C]
COCc1cc(C(=O)O)ccc1F | 100 to 102
CN(CC(=O)O)c1nc2ccccc2s1 | 165 to 167
O=c1nc2ccccc2c(-c2ccccc2)[nH]1 | 254 to 256
Cc1ccc(-c2ccncc2)cc1N | 202 to 204
CN1CCN(c2cccc(C#N)n2)CC1 | 59 to 61
Nc1cnccc1O | 156 to 158
CCOC(=O)c1sc2nc(CSc3ccccc3)nc(Cl)c2c1C | 52 to 54
O=C(O)CNC(=O)C12CC3CC(CC(C3)C1)C2 | 145 to 147
CC(C)C(Br)C(N)=O (centres undefined) | 131 to 133
O=C(O)c1cc2c(c(S(=O)(=O)Cl)c1)CCCC2 | 193 to 195
CC(C)Oc1ccc(S(=O)(=O)N2CCCCC2)cc1NC(=O)CCl | 270 to 272
O=C(O)CNC1CCS(=O)(=O)C1 (centres undefined) | 241 to 243
O=C(O)C1(O)CCSC1 (centres undefined) | 99 to 101
CS(=O)(=O)N1CCC(CN)CC1 | 63 to 65
O=[N+]([O-])c1ccccc1-c1cn[nH]c1 | 105 to 107
Cc1cc(Cl)c(CCl)c(Cl)n1 | 45 to 47
O=S(=O)(Cl)c1cnc(Cl)nc1Cl | 96 to 98
c1n[nH]c2c1CCNC2 | 134 to 136
N#Cc1ccnc(Oc2ccccc2Cl)c1 | 79 to 81
Nc1cncc(Cl)n1 | 149 to 151
O=c1[nH]c(Cl)cc2ccccc12 | 214 to 216
NC(=O)NCc1ccc(N)cc1 | 159 to 161
CCCCCCOc1ccc(C=O)cc1OC | 38 to 42
N#Cc1ccc(F)c(CBr)c1 | 44 to 46
O=C(O)c1cnc(-c2ccccn2)s1 | 199 to 201
BrCc1cccc2ccccc12 | 49 to 51

SMILES | melting point [°C]
OCCC1CSCCN1 (centres undefined) | 86 to 88
COCCNS(=O)(=O)c1ccc(Br)c(C(=O)O)c1 | 194 to 197
NC(=O)CCC(NS(=O)(=O)c1cccc(C(F)(F)F)c1)C(=O)O (centres undefined) | 164 to 166
COc1ccc(C(N)c2cccc(S(C)(=O)=O)c2)cc1 (centres undefined) | 80 to 82
Cc1oc(-n2cccc2)c(C#N)c1C(=O)O | 208 to 210
CC(Cl)c1nc2scc(-c3ccccc3)c2c(=O)[nH]1 (centres undefined) | 165 to 167
CC(C)(O)c1ccc(O)cc1 | 104 to 106
CCOC(=O)c1cc(-c2ccccc2)sc1N | 118 to 120
COC(=O)C1CN(CC#N)CCO1 (centres undefined) | 79 to 81
O=CC1=C(N2CCOCC2)C(=Cc2ccccc2)CC1 | 141 to 143
CNS(=O)(=O)c1cc(C(=O)O)ccc1F | 209 to 211
NNc1ccnc2ccccc12 | 155 to 157
Nc1cc(-c2c(F)cc(F)cc2F)no1 | 131 to 133
CC(SCC(=O)Nc1ccc(Br)cc1)C(=O)O (centres undefined) | 139 to 141
Cc1csc(Sc2ccc(N)c(C)c2)n1 | 61 to 63
NNc1ccc(S(=O)(=O)Nc2ccccn2)cn1 | 218 to 220
Cc1cc(C)c(S(=O)(=O)Cl)c(C)c1NS(C)(=O)=O | 175 to 177
Cc1c(C(=O)O)oc2cc3c(cc12)CCC3 | 265 to 267
O=C(CCl)Nc1ccc2[nH]c(=O)[nH]c2c1 | 230 to 232
NC(=O)C1CCCN(Cc2ccccc2N)C1 (centres undefined) | 133 to 135
Nc1nnc(-c2ccoc2)[nH]1 | 188 to 190
CC(C)(C)c1ccc(C2CCCC(O)C2)cc1 (centres undefined) | 75 to 77
COC(=O)c1cc(Br)cc(S(=O)(=O)Cl)c1 | 59 to 61
Cc1ccc(N)cc1NC(=O)CN1CCCCC1 | 108 to 110
Brc1ccc(-c2cscn2)cc1 | 69 to 71
Cc1cccc(C)c1OCC(=O)O | 138 to 140

The next lines start with the values.

melting point [°C] | SMILES
55 to 57 | CN1CC(N)C(=O)N1 (centres undefined)
184 to 186 | Nc1ccc(C(=O)CCC(=O)O)cc1
182 to 184 | O=C(NO)c1ccccc1Br
194 to 196 | O=C1CCC(c2ccccc2)CCN1 (centres undefined)
216 to 218 | CS(=O)(=O)c1ccc(C(N)=S)cc1
96 to 98 | Cn1ccnc1CC(=O)c1ccccc1
240 to 242 | O=S(=O)(c1nnc[nH]1)N1CCNCC1
103 to 105 | Nc1c(Cl)ncnc1N1CCCC1
179 to 181 | O=C(Nc1cn[nH]c1)Oc1ccccc1
49 to 51 | O=C(Cc1ccc(Cl)cc1)c1ccccn1
83 to 85 | CC(=CC(=O)O)C(C)(C)C
69 to 71 | CC(C)(C)c1cccc2c1OCC2=O
136 to 138 | O=C(Nc1cccc(Br)c1)c1ccccc1
179 to 181 | Nc1ccc(F)c(NS(=O)(=O)c2cccs2)c1
94 to 96 | CCOC(=O)c1cc(C)nc(-c2ccccc2)n1
163 to 165 | Cc1ccc(NC(=O)C2CC2)cc1N
174 to 176 | CCCNC(=O)Nc1ccc(CC(=O)O)cc1
52 to 54 | N#CCc1ccc(OCCBr)cc1
35 to 37 | O=C(NCc1ccco1)OCC(F)(F)F
116 to 118 | Cc1cc(C(=O)CCl)c(C)n1-c1cccc(Cl)c1
250 to 252 | CCn1c(N)c(-c2csc(C)n2)c(=O)[nH]c1=O
105 to 107 | Clc1nnc(-c2ccccn2)s1
83 to 85 | CNC(=O)c1ccccc1O
192 to 194 | Oc1cccc(Oc2ncccn2)c1

melting point [°C] | SMILES
132 to 134 | O=C(Nc1ccc([N+](=O)[O-])cc1Cl)OCC(F)(F)F
106 to 108 | O=C(O)COc1ccc(F)c(Cl)c1
149 to 151 | CC(C)NC(=O)c1ccc(N)cc1
139 to 141 | NC(=O)N1CCCCC1C(=O)O (centres undefined)
144 to 146 | Cn1ccc(C(=O)O)c1
160 to 162 | Cc1cc(C(=O)CCl)c(C)n1-c1c(C)n(C)n(-c2ccccc2)c1=O
150 to 152 | Cn1c(=O)oc2cc(N)ccc21
181 to 183 | COC(=O)c1n[nH]c2ccc(N)cc12
153 to 155 | Nc1nc(CN2CCCCC2)cs1
194 to 196 | O=C(O)c1cc(-n2ccnc2)ccn1
188 to 190 | O=c1[nH]nc(Br)c(=O)[nH]1
223 to 225 | O=C(O)c1cccc(S(=O)(=O)NCc2cccs2)c1
152 to 154 | CS(=O)(=O)Cc1ccc(N)cc1F
129 to 131 | Nc1ccc(Oc2ccncc2)c(Cl)c1
167 to 169 | C#CCNC(=O)Nc1cccc(C#N)c1
109 to 111 | NC(C(=O)O)(c1cccc(Cl)c1)C(F)(F)F (centres undefined)
70 to 72 | COc1ccnc(CO)c1
130 to 134 | O=C(O)C=Cc1cc(Cl)cc(Cl)c1
117 to 119 | COC(=O)c1ccc(N)c(OCC(F)(F)F)c1
78 to 80 | O=C(Nc1nc(C(F)(F)F)cs1)OCC(F)(F)F
195 to 197 | Clc1ncnc2[nH]ccc12
113 to 115 | CC(O)c1ncc(Cl)n1C (centres undefined)
146 to 148 | CN(C)c1cc(N)ccn1
149 to 151 | O=C1COc2ccccc2C(=O)N1

melting point [°C] | SMILES
128 to 130 | OCc1ccc(-n2ccnc2)nc1
254 to 256 | Cc1c(C(=O)O)cnc2ccccc12
158 to 160 | CN(C)C(=O)c1cc(N)ccc1Cl
141 to 143 | Cc1cccc(N)c1C(N)=O
113 to 115 | Nc1ccc(C(=O)NCc2ccccc2)cc1
119 to 121 | CC(=O)N1CCC(CCC(=O)O)CC1
99 to 101 | COc1ccc2nc(C)cc(Cl)c2c1
114 to 116 | Nc1cc(Br)ccc1-n1cncn1
179 to 181 | O=C(O)c1cc2cccc(C(F)(F)F)c2[nH]1
99 to 101 | Nc1ccc(-c2ncno2)cc1
59 to 61 | ONCc1ccc(F)cc1
103 to 105 | CC1CCCN(C(N)=S)C1 (centres undefined)
301 to 303 | CC(C)(C)C1CCc2c(sc3nc(S)nc(S)c23)C1 (centres undefined)
176 to 178 | COC(=O)c1cn(CC(=O)O)nn1
135 to 140 | NNC(=O)Cc1nc(-c2ccccc2)cs1
176 to 178 | CC(C)(C)C1CCc2sc(-c3nnc(S)o3)cc2C1 (centres undefined)
203 to 205 | CC(C)CC(N)c1nc(-c2nnc[nH]2)no1 (centres undefined)
97 to 99 | Fc1c(Br)cncc1Br
95 to 97 | Nc1ccc(C(=O)NCc2ccccc2F)cc1
316 to 318 | CCn1c(=O)[nH]c(=O)c2cc(C(=O)O)cnc21
64 to 66 | NC(=O)CCC1CCNCC1
123 to 125 | Cc1ccc(S(=O)(=O)NCC(=O)O)cc1C
188 to 190 | O=C(O)C=Cc1cccc2cccnc12
